From the CheMixHub viscosity set

Test: xn = mol fraction of the nth substance listed

CC(O)CO (stereo not drawn) + O
Details | viscosity [mPa·s]
293.15 K, 101 kPa, x1 = 0.0256 | 1.469
293.15 K, 101 kPa, x1 = 0.0558 | 2.125
293.15 K, 101 kPa, x1 = 0.092 | 3.14
293.15 K, 101 kPa, x1 = 0.1362 | 4.717
293.15 K, 101 kPa, x1 = 0.1913 | 6.665
293.15 K, 101 kPa, x1 = 0.2619 | 9.425
293.15 K, 101 kPa, x1 = 0.3556 | 14.17
293.15 K, 101 kPa, x1 = 0.4862 | 21.99
293.15 K, 101 kPa, x1 = 0.6804 | 35.18
298.15 K, 100 kPa, x1 = 0.2 | 5.452
298.15 K, 100 kPa, x1 = 0.4 | 12.77
298.15 K, 100 kPa, x1 = 0.6 | 21.63
298.15 K, 100 kPa, x1 = 0.8 | 32.85
298.15 K, 101 kPa, x1 = 0.197 | 5.634
298.15 K, 101 kPa, x1 = 0.3086 | 9.397
298.15 K, 101 kPa, x1 = 0.3774 | 12.17
298.15 K, 101 kPa, x1 = 0.4524 | 15.52
298.15 K, 101 kPa, x1 = 0.5109 | 18.22
298.15 K, 101 kPa, x1 = 0.5926 | 22.24
298.15 K, 101 kPa, x1 = 0.6898 | 27.16
298.15 K, 101 kPa, x1 = 0.8043 | 33.02
298.15 K, 101 kPa, x1 = 0.8747 | 36.98
298.15 K, 101 kPa, x1 = 0.9466 | 41.1
298.15 K, 101.3 kPa, x1 = 0.03 | 1.311
298.15 K, 101.3 kPa, x1 = 0.06 | 1.851
298.15 K, 101.3 kPa, x1 = 0.1 | 2.733
298.15 K, 101.3 kPa, x1 = 0.12 | 3.233
298.15 K, 101.3 kPa, x2 = 0.044 | 41.25
303.15 K, 101 kPa, x1 = 0.0101 | 0.902
303.15 K, 101 kPa, x1 = 0.02 | 1.022
303.15 K, 101 kPa, x1 = 0.0256 | 1.133
303.15 K, 101 kPa, x1 = 0.03 | 1.143
303.15 K, 101 kPa, x1 = 0.0399 | 1.282
303.15 K, 101 kPa, x1 = 0.0501 | 1.424
303.15 K, 101 kPa, x1 = 0.0558 | 1.572
303.15 K, 101 kPa, x1 = 0.0598 | 1.568
303.15 K, 101 kPa, x1 = 0.07 | 1.726
303.15 K, 101 kPa, x1 = 0.08 | 1.896
303.15 K, 101 kPa, x1 = 0.0899 | 2.059
303.15 K, 101 kPa, x1 = 0.092 | 2.236
303.15 K, 101 kPa, x1 = 0.1 | 2.246
303.15 K, 101 kPa, x1 = 0.1362 | 3.17
303.15 K, 101 kPa, x1 = 0.1913 | 4.481
303.15 K, 101 kPa, x1 = 0.2619 | 6.027
303.15 K, 101 kPa, x1 = 0.3556 | 8.744
303.15 K, 101 kPa, x1 = 0.4862 | 13.55
303.15 K, 101 kPa, x1 = 0.6804 | 21
303.15 K, 101 kPa, x2 = 0.97 | 1.143
308.15 K, 101 kPa, x1 = 0.0101 | 0.81
308.15 K, 101 kPa, x1 = 0.02 | 0.91
308.15 K, 101 kPa, x1 = 0.0399 | 1.13
308.15 K, 101 kPa, x1 = 0.0501 | 1.249
308.15 K, 101 kPa, x1 = 0.0598 | 1.373
308.15 K, 101 kPa, x1 = 0.07 | 1.499
308.15 K, 101 kPa, x1 = 0.08 | 1.642
308.15 K, 101 kPa, x1 = 0.0899 | 1.775
308.15 K, 101 kPa, x1 = 0.1 | 1.927
313.15 K, 101 kPa, x1 = 0.0101 | 0.732
313.15 K, 101 kPa, x1 = 0.02 | 0.82
313.15 K, 101 kPa, x1 = 0.0256 | 0.9114
313.15 K, 101 kPa, x1 = 0.03 | 0.907
313.15 K, 101 kPa, x1 = 0.0399 | 1.005
313.15 K, 101 kPa, x1 = 0.0501 | 1.105
313.15 K, 101 kPa, x1 = 0.0558 | 1.267
313.15 K, 101 kPa, x1 = 0.0598 | 1.213
313.15 K, 101 kPa, x1 = 0.07 | 1.315
313.15 K, 101 kPa, x1 = 0.08 | 1.437
313.15 K, 101 kPa, x1 = 0.0899 | 1.543
313.15 K, 101 kPa, x1 = 0.092 | 1.703
313.15 K, 101 kPa, x1 = 0.1 | 1.671
313.15 K, 101 kPa, x1 = 0.1362 | 2.278
313.15 K, 101 kPa, x1 = 0.1913 | 2.952
313.15 K, 101 kPa, x1 = 0.2619 | 4.008
313.15 K, 101 kPa, x1 = 0.3556 | 5.698
313.15 K, 101 kPa, x1 = 0.4862 | 8.384
313.15 K, 101 kPa, x1 = 0.6804 | 12.88
313.15 K, 101 kPa, x2 = 0.97 | 0.9218
318.15 K, 101 kPa, x1 = 0.0101 | 0.667
318.15 K, 101 kPa, x1 = 0.02 | 0.743
318.15 K, 101 kPa, x1 = 0.03 | 0.819
318.15 K, 101 kPa, x1 = 0.0399 | 0.904
318.15 K, 101 kPa, x1 = 0.0501 | 0.99
318.15 K, 101 kPa, x1 = 0.0598 | 1.078
318.15 K, 101 kPa, x1 = 0.07 | 1.168
318.15 K, 101 kPa, x1 = 0.08 | 1.268
318.15 K, 101 kPa, x1 = 0.0899 | 1.361
318.15 K, 101 kPa, x1 = 0.1 | 1.466
323.15 K, 100 kPa, x1 = 0.2 | 2.308
323.15 K, 100 kPa, x1 = 0.4 | 4.7
323.15 K, 100 kPa, x1 = 0.6 | 7.261
323.15 K, 100 kPa, x1 = 0.8 | 9.984
323.15 K, 101 kPa, x1 = 0.0101 | 0.611
323.15 K, 101 kPa, x1 = 0.02 | 0.678
323.15 K, 101 kPa, x1 = 0.0256 | 0.7514
323.15 K, 101 kPa, x1 = 0.03 | 0.744
323.15 K, 101 kPa, x1 = 0.0558 | 0.9714
323.15 K, 101 kPa, x1 = 0.092 | 1.282
323.15 K, 101 kPa, x1 = 0.1362 | 1.644
323.15 K, 101 kPa, x1 = 0.1913 | 2.138
323.15 K, 101 kPa, x1 = 0.2619 | 2.813
323.15 K, 101 kPa, x1 = 0.3556 | 3.891
323.15 K, 101 kPa, x1 = 0.4862 | 5.583
323.15 K, 101 kPa, x1 = 0.6804 | 8.332

CC(O)CO (stereo not drawn) + CS(C)=O
viscosity [mPa·s], 100 kPa
Details | 293.15 K | 298.15 K | 303.15 K | 308.15 K | 313.15 K | 318.15 K
x1 = 0.0513 | 2.52 | 2.24 | 2.04 | 1.8 | 1.65 | 1.55
x1 = 0.1024 | 2.82 | 2.51 | 2.28 | 1.99 | 1.82 | 1.7
x1 = 0.1534 | 3.19 | 2.82 | 2.55 | 2.21 | 2.01 | 1.87
x1 = 0.2043 | 3.61 | 3.17 | 2.86 | 2.44 | 2.22 | 2.06
x1 = 0.255 | 4.08 | 3.54 | 3.19 | 2.72 | 2.46 | 2.27
x1 = 0.3056 | 4.63 | 4 | 3.58 | 3.02 | 2.72 | –
x1 = 0.356 | 5.31 | 4.56 | 4.03 | 3.38 | 3.04 | –
x1 = 0.4064 | 6.1 | 5.21 | 4.56 | 3.82 | 3.39 | –
x1 = 0.4566 | 7.04 | 5.93 | 5.17 | 4.28 | 3.8 | –
x1 = 0.5066 | 8.19 | 6.88 | 5.94 | 4.84 | 4.25 | –
x1 = 0.5565 | 9.53 | 7.93 | 6.78 | 5.52 | 4.8 | –
x1 = 0.6063 | 11.3 | 9.3 | 7.84 | 6.36 | 5.45 | –
x1 = 0.6556 | 13.5 | 11 | 9.26 | 7.35 | 6.26 | –
x1 = 0.7055 | 16.3 | 13.1 | 10.9 | 8.58 | 7.23 | –
x1 = 0.7549 | 19.9 | 15.8 | 12.8 | 10.1 | 8.38 | –
x1 = 0.8042 | 24.4 | 19 | 15.4 | 12 | 9.8 | –
x1 = 0.8533 | 30.1 | 23.2 | 18.5 | 14.3 | 11.5 | –
x1 = 0.9024 | 37.7 | 28.7 | 22.7 | 17.2 | 13.7 | –
x1 = 0.9512 | 47.5 | 35.5 | 27.6 | 20.7 | 16.2 | –
